Converted amounts (≈) assume the structure as drawn. Read-outs that look alike come from different tables or passages of the source.
Tests used:
Candida tropicalis 156 = assay: Antifungal microdilution broth, CT; format: cell-based; settings: read-out: MIC CT
Candida krusei E28 = assay: Antifungal microdilution broth, CK; format: cell-based; settings: read-out: MIC CK
[1] = tested on: Staphylococcus aureus H 5996/08 methicillin resistant; assay: microbe, parasite or virus in culture; format: cell-based; settings: for MIC: Staphylococcus aureus, MRSA, read-out: MIC MRSA
[2] = tested on: Mycobacterium tuberculosis H37Rv CNCTC My 331/88 (ATCC 27294); assay: Antimycobacterial microdilution MABA, M. tuberculosis; format: cell-based; settings: for MIC: Mycobacterium tuberculosis
[3] = tested on: Aspergillus fumigatus 231; assay: Antifungal microdilution broth, AF; format: cell-based; settings: read-out: MIC AF
[4] = tested on: Escherichia coli CCM 4517; assay: Antibacterial microdilution broth, EC; format: cell-based; settings: Escherichia coli, read-out: MIC EC
[5] = tested on: Trichophyton interdigitale 445; assay: Antifungal microdilution broth, TI; format: cell-based; settings: read-out: MIC TI
[6] = tested on: Lichtheimia corymbifera 272; assay: Antifungal microdilution broth, LC; format: cell-based; settings: read-out: MIC LC
[7] = tested on: M. avium ssp. avium CNCTC My 80/72 (ATCC 15769); assay: Antimycobacterial microdilution MABA, M. avium; format: cell-based, Mycobacterium avium; settings: Mycobacterium avium, ATCC15769, pH 6.6, read-out: M. avium ATCC 15769 MIC
Candida glabrata 20/I = assay: Antifungal microdilution broth, CG; format: cell-based; settings: read-out: MIC CG
[8] = tested on: eight fungal strains of clinical importance; assay: Antifungal microdilution, all tested fungal strains; format: cell-based; settings: for MIC: Trichophyton interdigitale, read-out: MIC, all tested fungal strains
[9] = tested on: M. kansasii CNCTC My 235/80 (ATCC 12478); assay: Antimycobacterial microdilution MABA, M. kansasii; format: cell-based, Mycobacterium kansasii; settings: Mycobacterium kansasii, ATCC12478, pH 6.6, read-out: M. kans. ATCC 12478 MIC, Middlebrook 7H9 with OADC, pH 6.6, MABA
Trichosporon asahii 1188 = assay: Antifungal microdilution broth, TA; format: cell-based; settings: read-out: MIC TA
[10] = tested on: Mycobacterium smegmatis CCM 4622 (ATCC 607); assay: Antimycobacterial microdilution, M. smegmatis; format: cell-based; settings: Mycolicibacterium smegmatis, read-out: M. smeg. ATCC 607 MIC
[11] = tested on: Candida albicans ATCC 44859; assay: Antifungal microdilution broth, CA; format: cell-based; settings: read-out: MIC CA
[12] = tested on: Staphylococcus epidermidis H 6966/08; assay: Antibacterial microdilution broth, SE; format: cell-based; settings: read-out: MIC SE
[13] = tested on: Enterococcus sp. J 14365/08; assay: Antibacterial microdilution broth, EF; format: cell-based; settings: Enterococcus, read-out: MIC EF
[14] = tested on: Staphylococcus aureus CCM 4516/08; assay: Antibacterial microdilution broth, SA; format: cell-based; settings: Staphylococcus aureus
[15] = tested on: Pseudomonas aeruginosa CCM 1961; assay: Antibacterial microdilution broth, PA; format: cell-based; settings: Pseudomonas aeruginosa, read-out: MIC PA
[16] = human, HepG2 cells
[17] = read-out: Mtb H37Rv ATCC 27294 MIC, Middlebrook 7H9 with OADC growth supplement, pH = 6.6, MABA
[18] = Aspergillus fumigatus, 231, 24 h
[19] = Aspergillus fumigatus, 231, 48 h
[20] = Trichophyton interdigitale, 445, 72 h
[21] = Trichophyton interdigitale, 445, 120 h
[22] = Lichtheimia corymbifera, 272, 24 h
[23] = Lichtheimia corymbifera, 272, 48 h
[24] = Nakaseomyces glabratus, 20/I, 24 h
[25] = Nakaseomyces glabratus, 20/I, 48 h
[26] = Trichosporon asahii, 1188, 24 h
[27] = Trichosporon asahii, 1188, 48 h
[28] = Candida albicans, ATCC44859, 24 h
[29] = Candida albicans, ATCC44859, 48 h
[30] = Staphylococcus epidermidis, H6966/08, 24 h
[31] = Staphylococcus epidermidis, H6966/08, 48 h
[32] = CCM4516, 24 h, read-out: MIC SA, 24 h
[33] = CCM4516, 48 h, read-out: MIC SA, 48 h

Compound: O=C(Nc1cnc(Cl)cn1)c1cccc(O)c1 [Compound 2c]
- MIC (Candida tropicalis 156; Candida tropicalis, 156, 24 h): > 500 µM
- MIC (Candida tropicalis 156; Candida tropicalis, 156, 48 h): > 500 µM
- MIC (Candida krusei E28; Pichia kudriavzevii, E28, 24 h): > 500 µM
- MIC (Candida krusei E28; Pichia kudriavzevii, E28, 48 h): > 500 µM
- MIC MRSA ([1]; 24 h): >500 µM
- MIC MRSA ([1]; 48 h): >500 µM
- MIC ([1]; 24 h): > 500 µM
- MIC ([1]; 48 h): > 500 µM
- Mtb H37Rv ATCC 27294 MIC ([2]; Middlebrook 7H9 with OADC growth supplement, pH = 6.6, MABA): >100 µg/mL
- MIC [2, 17]: > 100 µg/mL
- MIC [3, 18]: > 500 µM
- MIC [3, 19]: > 500 µM
- melting point: 190.1 to 190.8 °C
- MIC ([4]; CCM4517, 24 h): > 500 µM
- MIC ([4]; CCM4517, 48 h): > 500 µM
- MIC [5, 20]: > 500 µM
- MIC [5, 21]: > 500 µM
- MIC [6, 22]: > 500 µM
- MIC [6, 23]: > 500 µM
- MIC [7]: > 100 µg/mL
- MIC (Candida glabrata 20/I; [24]): > 500 µM
- MIC (Candida glabrata 20/I; [25]): > 500 µM
- MIC [8]: ≥ 500 µM
- MIC [9]: > 100 µg/mL
- MIC (Trichosporon asahii 1188; [26]): > 500 µM
- MIC (Trichosporon asahii 1188; [27]): > 500 µM
- MIC [10]: ≥ 500 µg/mL
- MIC [11, 28]: 500 µM (≈ 125 µg/mL)
- MIC [11, 29]: > 500 µM
- MIC ([12]; 24 h): >500 µM
- MIC ([12]; 48 h): >500 µM
- MIC [12, 30]: > 500 µM
- MIC [12, 31]: > 500 µM
- MIC ([13]; SP.J14365/08, 24 h): > 500 µM
- MIC ([13]; SP.J14365/08, 48 h): > 500 µM
- MIC [14, 32]: 500 µM (≈ 125 µg/mL)
- MIC [14, 33]: 500 µM (≈ 125 µg/mL)
- MIC ([15]; CCM1961, 72 h): > 500 µM
- MIC ([15]; CCM1961, 120 h): > 500 µM

Compound: C[C@@H]1[C@H](O)[C@@H](C)/C=C/C=C/CC/C=C/C=C/C=C/C=C/C(O[C@H]2O[C@H](C)[C@@H](O)[C@H](N)[C@@H]2O)CC2O[C@](O)(CC(O)C(O)CCC(O)CC(O)CC(O)CC(=O)O[C@H]1C)CC(O)C2C(=O)O (stereo partly shown) [NYS, nystatin, reference compound]
- MIC (Candida tropicalis 156; 24 h): 1.95 µM (≈ 1.81 µg/mL)
- MIC (Candida tropicalis 156; 48 h): 3.9 µM (≈ 3.61 µg/mL)
- MIC (Candida krusei E28; 24 h): 1.95 µM (≈ 1.81 µg/mL)
- MIC (Candida krusei E28; 48 h): 3.9 µM (≈ 3.61 µg/mL)
- MIC ([3]; 24 h): 1.95 µM (≈ 1.81 µg/mL)
- MIC ([3]; 48 h): 3.9 µM (≈ 3.61 µg/mL)
- MIC ([5]; 72 h): 3.9 µM (≈ 3.61 µg/mL)
- MIC ([5]; 120 h): 7.81 µM (≈ 7.23 µg/mL)
- MIC ([6]; 24 h): 15.62 µM (≈ 14.5 µg/mL)
- MIC ([6]; 48 h): 31.25 µM (≈ 28.9 µg/mL)
- MIC (Candida glabrata 20/I; 24 h): 1.95 µM (≈ 1.81 µg/mL)
- MIC (Candida glabrata 20/I; 48 h): 3.9 µM (≈ 3.61 µg/mL)
- MIC, all tested fungal strains ([8]; read after 24 h (Trichophyton interdigitale 72 h)): 0.98 to 15.62 µM
- MIC (Trichosporon asahii 1188; 24 h): 1.95 µM (≈ 1.81 µg/mL)
- MIC (Trichosporon asahii 1188; 48 h): 1.95 µM (≈ 1.81 µg/mL)
- MIC ([11]; 24 h): 0.98 µM (≈ 0.908 µg/mL)
- MIC ([11]; 48 h): 1.95 µM (≈ 1.81 µg/mL)

Compound: CC(=O)Oc1ccccc1C(=O)Nc1cnc(Cl)cn1 [Compound 2b-Ac]
- MIC (Candida tropicalis 156; Candida tropicalis, 156, 24 h): 250 µM (≈ 72.9 µg/mL)
- MIC (Candida tropicalis 156; Candida tropicalis, 156, 48 h): 250 µM (≈ 72.9 µg/mL)
- MIC (Candida krusei E28; Pichia kudriavzevii, E28, 24 h): 125 µM (≈ 36.5 µg/mL)
- MIC (Candida krusei E28; Pichia kudriavzevii, E28, 48 h): 125 µM (≈ 36.5 µg/mL)
- MIC ([1]; 24 h): 125 µM (≈ 36.5 µg/mL)
- MIC ([1]; 48 h): 250 µM (≈ 72.9 µg/mL)
- MIC [2, 17]: 12.5 µg/mL
- MIC ([2]; read-out: Mtb MIC, molar concentration): 42.9 µM
- IC50 at 24 h [16]: 95.4 µM
- MIC [3, 18]: 250 µM (≈ 72.9 µg/mL)
- MIC [3, 19]: 250 µM (≈ 72.9 µg/mL)
- MIC ([4]; CCM4517, 24 h): > 250 µM
- MIC ([4]; CCM4517, 48 h): > 250 µM
- MIC [5, 20]: 250 µM (≈ 72.9 µg/mL)
- MIC [5, 21]: 250 µM (≈ 72.9 µg/mL)
- MIC [6, 22]: 125 µM (≈ 36.5 µg/mL)
- MIC [6, 23]: 125 µM (≈ 36.5 µg/mL)
- MIC [7]: 50 µg/mL (≈ 171 µM)
- MIC (Candida glabrata 20/I; [24]): 250 µM (≈ 72.9 µg/mL)
- MIC (Candida glabrata 20/I; [25]): 250 µM (≈ 72.9 µg/mL)
- MIC [8]: 125 to 250 µM (≈ 36.5 to 72.9 µg/mL)
- MIC [9]: 12.5 µg/mL (≈ 42.9 µM)
- MIC (Trichosporon asahii 1188; [26]): 125 µM (≈ 36.5 µg/mL)
- MIC (Trichosporon asahii 1188; [27]): 125 µM (≈ 36.5 µg/mL)
- MIC [10]: 31.2 µg/mL (≈ 107 µM)
- MIC [11, 28]: 125 µM (≈ 36.5 µg/mL)
- MIC [11, 29]: 125 µM (≈ 36.5 µg/mL)
- MIC [12, 30]: 125 µM (≈ 36.5 µg/mL)
- MIC [12, 31]: 250 µM (≈ 72.9 µg/mL)
- MIC ([13]; SP.J14365/08, 24 h): 250 µM (≈ 72.9 µg/mL)
- MIC ([13]; SP.J14365/08, 48 h): > 250 µM
- MIC [14, 32]: 62.5 µM (≈ 18.2 µg/mL)
- MIC [14, 33]: 125 µM (≈ 36.5 µg/mL)
- MIC ([15]; CCM1961, 72 h): > 250 µM
- MIC ([15]; CCM1961, 120 h): > 250 µM
